We go through seven compounds from patent US20100324279A1, “CRYSTAL FORMS OF 2-[2-(4-CHLOROPHENYL)ETHOXY]ADENOSINE” (priority 2007, published 2010).

Converted amounts (≈) assume the structure as drawn.

A short description of data set [1]: Approximate solubilities of A-type crystals of MRE-0094 in test solvents. To be noted: thermodynamic from solid. Format: physicochemical. The method, then: Weighed samples of MRE-0094 (typically 30-60 mg) are treated with aliquots of the test solvent. Solvents are either reagent or HPLC grade. The aliquots are usually 200 μL or 500 μL. Between additions the mixtures are sonicated. […] Note that actual solubilities may be greater than those calculated due to the volume of the solvent aliquots or to a slow rate of dissolution. […] The solubilities are reported to the nearest mg/mL.

A short description of data set [2]: Moisture sorption/desorption analysis. Format: physicochemical. To be noted: for Solid material after moisture sorption identified by XRPD: after sorption/desorption 5 to 95% RH; for Moisture sorption: total weight gain: between 5% and 95% relative humidity (RH); for Hygroscopicity based on the moisture sorption data: exposed to high relative humidity; for Weight lost upon desorption: after sorption to 95% RH. As for the experimental part: Moisture sorption/desorption analyses may be performed, e.g., on a VTI SGA-100 Vapor Sorption Analyzer Sorption and desorption data are collected, e.g., over a range of 5 to 95% relative humidity (RH) at 10% RH intervals under a nitrogen purge. Samples need not to be dried prior to analysis. Equilibrium criteria used for analysis are, e.g., less than 0.01% weight change in 5 min, with a maximum equilibration time of 3 h if the weight criterion is not met NaCl and PVP may used as calibration standards.

Data set [3] in a line: Heat stress studies and variable temperature XRPD. Format: physicochemical. The method, then:
For heat stress studies, samples of MRE-0094 A-type crystals are heated isothermally at different temperatures to investigate the effect of temperatures on solid state conversions. The samples are heated for up to 15 min. The solid material is allowed to cool before analyzing by XRPD.
(2 min). Variable temperature XRPD (VT-XRPD) may be performed on A-type crystals of MRE-0094 to better understand its thermal behavior. […] The sample remains as B-type crystals up to 165° C. […] It is likely that the melting of B-type crystals, subsequent recrystallization, and final melting of the solid occurs too fast to be captured by VT-XRPD. Based on the VT-XRPD data, the thermal events observed by DSC at approximately 117° C. and 126° C. are due to the solid conversion followed by the subsequent recrystallization to form B-type crystals.

A short description of data set [4]: Approximate solubilities of A-type crystals of MRE-0094 in test solvents. Type of data set: physicochemical. The note with it: organic solvent or mixture, thermodynamic from solid; PG, RT; agitated two days, calculated from difference between starting and ending weights.
The nature of data set [5]: Desolvation/dehydration studies under various drying conditions (XRPD). Format: physicochemical. The note with it: for Solid form after exposure to ambient conditions: eight days. As for the experimental part:
Desolvation studies under various conditions may be performed to investigate the effects of drying conditions on the C-type crystals. […] However, the anhydrous form to which C-type crystals convert may be dependent on the drying conditions and temperature.
Desolvation studies under various conditions may be conducted to investigate the effects of drying conditions on F-type crystals.
Dehydration studies under various conditions are performed to investigate the effects of drying conditions on the I-type crystals.

The nature of data set [6]: Stability to mechanical grinding/milling followed by vapor stress (XRPD). The note with it: ball-milling, then about 97% relative humidity, K2SO4 humidity jar, 1 day. Format: physicochemical. From the text:
Stability to grinding may be assessed by measurement of an appropriate physical property before and after grinding. Where the physical property remains substantially unchanged substantial stability to grinding is indicated. Suitable physico-chemical properties for measurement include a melting point or DSC analysis, a X-ray diffraction pattern, an infrared absorption spectrum and a Raman spectrum, particularly the X-ray diffraction pattern.
Stability to mechanical grinding/milling may be tested, e.g., by employing a small stainless steel cylinder The cylinder is charged with a weighted amount of a crystal form of MRE-0094 and a stainless steel ball is added, the cylinder is capped and the unit is placed on a Retsch Mixer Mill (Type MM 200) for a total of 30 min at a frequency of 30/s (ball-milling).

Data set [7] deals with neuropathic, diabetic foot ulcers (DFU). Nature of the data set: Phase I study of topical MRE-0094 gel: wound closure. The note with it: DFU patients; for % Wound Closure (Day 28): topically once daily for 28 days; for Median Number of Days to: 50% Closure / Median Number of Days to: 75% Closure: topically once daily. Format: in vivo. The method, then:
(§1) MRE-0094 is administered to patients with neuropathic, diabetic foot ulcers (DFU). Patients 18-80 years old are randomized in a 1:3 ratio to a standard DFU care and a vehicle gel, or a standard DFU care and a gel containing MRE-0094 as described herein above. Standard care include routine sharp debridement, pressure offloading, and maintaining a moist wound environment. Inclusion criteria includes full thickness wounds between 1 and 10 cm^2 in area. Exclusion criteria includes arterial insufficiency, renal or hepatic insufficiency, active infection, or osteomyelitis. Patients are enrolled into 3 groups, and receive drug at an escalating concentration by group of 5 μg/g, 50 μg/g, or 500 μg/g. Safety data are reviewed by an independent safety board prior to escalating dose. Drug or vehicle is applied topically once daily for 28 days. Outcome measures include adverse events and other safety assessments, plasma concentrations of the active agent MRE-0094, percent of wound closure, and rate of wound closure. Thirty-six patients are randomized (25 active agent, 11 vehicle gel, i.e., placebo) with an average age of 54.8 years, 78% are male.

The nature of data set [8]: Phase I study: plasma concentrations of MRE-0094 (systemic absorption). Format: in vivo, patients. To be noted: any topical dose concentration (5, 50, 500 μg/g gel). As for the experimental part: as §1
For the next data set, the system named is diabetic ulcers. To be noted: healthy BALB/C mice; cited from earlier work.

The term solubility denotes how much of the substance goes into solution per volume. Turning to `Nc1nc(OCCc2ccc(Cl)cc2)nc2c1ncn2[C@@H]1O[C@H](CO)[C@@H](O)[C@H]1O` [A-type crystal form, 2-[2-(4-chlorophenyl)ethoxy]adenosine], the solubility was 9000 µg/mL (≈ 21.3 mM) in data set [1] (aqueous with cosolvent or surfactant or cyclodextrin, EtOH:water - 1:1, RT); 6000 µg/mL (≈ 14.2 mM) in data set [1] (aqueous with cosolvent or surfactant or cyclodextrin, water:PG - 1:1, RT); 17000 µg/mL (≈ 40.3 mM) in data set [1] (organic solvent or mixture, 1,4-dioxane, RT); below 3000 µg/mL in [1] (organic solvent or mixture, ACN, RT); below 2000 µg/mL in data set [1] (organic solvent or mixture, DCM, RT); 179000 µg/mL (≈ 424 mM) in [1] (organic solvent or mixture, DMF, RT). Besides, the solubility in data set [1] (organic solvent or mixture, EtOAc, RT) was below 4000 µg/mL; in data set [1] (organic solvent or mixture, EtOH, RT) it was 7000 µg/mL (≈ 16.6 mM); in data set [1] (organic solvent or mixture, EtOH:water - 19:1, RT), 12000 µg/mL (≈ 28.4 mM); in [1] (organic solvent or mixture, IPA, RT), 4000 µg/mL (≈ 9.48 mM); in data set [1] (organic solvent or mixture, MEK, RT), 4000 µg/mL (≈ 9.48 mM); in data set [1] (organic solvent or mixture, MeOH, RT), 4000 µg/mL (≈ 9.48 mM). For the same compound, the solubility in data set [1] (organic solvent or mixture, TFE, RT) was 11000 µg/mL (≈ 26.1 mM); in data set [1] (organic solvent or mixture, THF, RT) it was 23000 µg/mL (≈ 54.5 mM); in data set [1] (organic solvent or mixture, acetone, RT), 5000 µg/mL (≈ 11.9 mM); in [1] (organic solvent or mixture, heptane, RT), below 4000 µg/mL; in data set [1] (organic solvent or mixture, toluene, RT), below 4000 µg/mL; in [1] (water, RT), below 300 µg/mL. For the same compound, in data set [2], the “Solid material after moisture sorption identified by XRPD” value (“Solid material” below) is recorded as “A-type crystal form”. Besides, the “Moisture sorption: total weight gain” value in data set [2] was “approximately 4.3%”. Besides, the “Moisture sorption: weight gain” value in [2] (between 5 and 55% RH) was “approximately 0.3%”. Also, in data set [2] (between 55% and 95% RH), the “Moisture sorption: additional weight gain” value is listed as 4.0%. For the same compound, the “Hygroscopicity based on the moisture sorption data” value (“Hygroscopicity based” below) in data set [2] is given as “hygroscopic”. Further, the “Temperature of solid form conversion in heat stress studies” value in data set [3] (isothermal heating, 2 min) is “approximately 164 °C”. Moreover, the “Temperature of conversion to B-type crystal form (VT-XRPD)” value in data set [3] (variable temperature XRPD) was 120 °C. Besides, the “Temperature up to which the crystal form remains as such (VT-XRPD)” value in [3] (variable temperature XRPD) is “up to 115 °C”. The solubility at 2 days in [4] is below 71000 µg/mL.
Take `Nc1nc(OCCc2ccc(Cl)cc2)nc2c1ncn2[C@@H]1O[C@H](CO)[C@@H](O)[C@H]1O` [B-type crystal form, 2-[2-(4-chlorophenyl)ethoxy]adenosine]: in data set [2], the “Weight lost upon desorption” value was “Approximately 3.7%”, the “Solid material” value is given as “B-type crystal form”, the “Moisture sorption: total weight gain” value is given as “approximately 3.9%” and the “Hygroscopicity based” value was “hygroscopic”.
Consider `Nc1nc(OCCc2ccc(Cl)cc2)nc2c1ncn2[C@@H]1O[C@H](CO)[C@@H](O)[C@H]1O` [C-type crystal form, 2-[2-(4-chlorophenyl)ethoxy]adenosine], for which the “Solid form after exposure to ambient conditions” value in data set [5] is listed as “does not completely convert to A-type crystals”. Besides, the “Solid form after desolvation” value in data set [5] (heated at 60° C. for eight days or dried in vacuo for six days) is given as “convert to A-type crystal form”.
With `Nc1nc(OCCc2ccc(Cl)cc2)nc2c1ncn2[C@@H]1O[C@H](CO)[C@@H](O)[C@H]1O` [F-type crystal form, 2-[2-(4-chlorophenyl)ethoxy]adenosine], the “Solid form after exposure to ambient conditions” value in data set [5] (listed as F-type crystals) is recorded as “Amorphous/low crystalline material”. For the same compound, in data set [5] (vacuum oven and 60° C.), the “Solid form after desolvation” value was “low crystalline mixture of A-type and B-type crystals”.
For the compound `Nc1nc(OCCc2ccc(Cl)cc2)nc2c1ncn2[C@@H]1O[C@H](CO)[C@@H](O)[C@H]1O` [G-type crystal form, 2-[2-(4-chlorophenyl)ethoxy]adenosine], in data set [2], the “Weight lost upon desorption” value is recorded as “Approximately 2.2%”, the “Solid material” value was “G-type crystal form”, the “Moisture sorption: total weight gain” value is given as “approximately 2.4%” and the “Hygroscopicity based” value is reported as “hygroscopic”. Also, in data set [6], the “Stability to mechanical milling followed by vapor stress” value is listed as “substantially stable”.
Turning to `Nc1nc(OCCc2ccc(Cl)cc2)nc2c1ncn2[C@@H]1O[C@H](CO)[C@@H](O)[C@H]1O` [I-type crystal form, 2-[2-(4-chlorophenyl)ethoxy]adenosine], the “Solid form after dehydration” value in data set [5] (various drying conditions) was “either B-type, or a mixture of A-type and B-type crystals”.
In the case of `Nc1nc(OCCc2ccc(Cl)cc2)nc2c1ncn2[C@@H]1O[C@H](CO)[C@@H](O)[C@H]1O` [MRE-0094, 2-[2-(4-chlorophenyl)ethoxy]adenosine], in data set [7] (5 μg/g gel), the “% Wound Closure (Day 28)” value was determined as 60.7%, the “Median Number of Days to: 50% Closure” value stood at 8 days and the “Median Number of Days to: 75% Closure” value worked out at 14 days. Besides, in data set [7] (50 μg/g gel), the “% Wound Closure (Day 28)” value is given as 67.5%, the “Median Number of Days to: 50% Closure” value amounted to 12 days and the “Median Number of Days to: 75% Closure” value worked out at 28 days. In addition, in data set [7] (500 μg/g gel), the “% Wound Closure (Day 28)” value was found to be 35.4%, the “Median Number of Days to: 50% Closure” value was found to be 14 days and the “Median Number of Days to: 75% Closure” value was determined as 36 days. For the same compound, the “Systemic absorption of MRE-0094” value in data set [8] is listed as “No systemic absorption”. Moreover, the “Wound healing of diabetic ulcers” value in the data set with diabetic ulcers is reported as “promote wound healing”.
